In patent US20090203644A1, “Compositions for treating and/or preventing diseases characterized by the presence of metal ions” (GrenPharma LLC, priority 2004, published 2009):
“Also recorded” adds a separate entry of the source. Like-named read-outs stand apart in the source and are kept apart here.

What was measured:
Caco-2 cells [1] = settings: Caco-2
NF-M17 = target: T1, NF-M17 (Homo sapiens, UniProt P07197); assay: CD titration: restoration of the CD spectrum of NF-M17 exposed to aluminum; type: biochemical
T1 construct: a seventeen amino acid region of the human neurofilament mid-sized subunit protein, NF-M17; host or cells: chemical synthesis

A-beta peptide fragment = A-beta peptide fragment (Homo sapiens, UniProt P05067); assay: CD helix-coil reversal and pretreatment experiments (Example 11); type: biochemical
Chain of A-beta peptide fragment (P05067 672-713): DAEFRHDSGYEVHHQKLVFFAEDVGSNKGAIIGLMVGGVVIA

A-beta peptide = tested on: A-beta peptide; set-up: species or system human
A-beta1-42 peptide = A-beta1-42 peptide (Homo sapiens, UniProt P05067); assay: CD: reversal of the aluminum effect on the A-beta1-42 peptide spectrum (Example 3); type: biochemical
Chain of A-beta1-42 peptide (P05067 672-713): as above

Caco-2 cells [2] = tested on: Caco-2 cells

C[Si](Cl)(Cl)CC[Si](C)(Cl)Cl [1,2-(methyldichlorosilyl)ethane]
permeation across Caco-2 cells compared with mannitol (Caco-2 cells [1]): at least four times greater

NCCC[Si](O)(O)O [APST, 3-aminopropylsilantriol]
Restore original spectra? (NF-M17): Yes
chelation of aluminum compared to sodium orthosilicate (NF-M17): improved chelation of aluminum

CC[Si](O)(CC)Cc1ccccc1 [BDS, benzyldiethylsilanol]
Restore original spectra? (NF-M17): did not restore and No

CCC(C#N)C[Si](C)(Cl)Cl (stereo not drawn) [CBMS, 2-cyanobutylmethyldichlorosilane]
recovery of helicity in Al-denatured peptide / reversal of aluminum-induced denaturation (CD) (A-beta peptide fragment): appeared to reverse aluminum-induced denaturation
total extracted (A-beta peptide): 3.6 fmol
Permeation Coefficient (cm/sec) Mean ± SD, where applicable (Caco-2 cells [1]; human): 6.5e-06 cm/s
Total Permeation Coefficient (cm/sec) Mean ± SD, where applicable, Caco-2 (Caco-2 cells [1]; human): 6.5e-06 cm/s
Total Permeation Coefficient (cm/sec) Mean ± SD, where applicable, MDCK (MDCK cells; dog): 1.5e-06 cm/s

CC(C#N)C[Si](C)(Cl)Cl (stereo not drawn) [CPMS, 2-cyanopropylmethyldichlorosilane]
recovery of helicity in Al-denatured peptide / reversal of aluminum-induced denaturation (CD) (A-beta peptide fragment): appeared to reverse aluminum-induced denaturation
total extracted (A-beta peptide): 5.3 fmol
permeation across Caco-2 cells compared with mannitol (Caco-2 cells [1]): approximately three times more efficiently
Permeation Coefficient (cm/sec) Mean ± SD, where applicable (Caco-2 cells [1]; human): 6.1 ± 1.7 × 10^−6 cm/sec
Total Permeation Coefficient (cm/sec) Mean ± SD, where applicable, Caco-2 (Caco-2 cells [1]; human): 6.1 ± 1.7 × 10^−6 cm/sec
Total Permeation Coefficient (cm/sec) Mean ± SD, where applicable, MDCK (MDCK cells; dog): 1.2e-06 cm/s

N#CCCC[Si](Cl)(Cl)Cl [CPTCS, 3-cyanopropyltrichlorosilane]
Restore original spectra? (NF-M17): Yes
equivalents at which the CD spectrum of NF-M17/aluminum is restored to (similar to) its original shape (NF-M17): around 32 equivalents
restoration of the original CD spectrum of the peptide after exposure to aluminum (A-beta1-42 peptide): able to restore the CD spectrum
reversal of the effects of aluminum on the CD spectrum of the peptide (A-beta1-42 peptide): Moderate reversal; also recorded: almost full reversal

CC[Si](Cl)(Cl)CC [DCDES, dichlorodiethylsilane]
Restore original spectra? (NF-M17): Yes
equivalents at which the CD spectrum of NF-M17/aluminum is restored to (similar to) its original shape (NF-M17): around 32 equivalents
restoration of the original CD spectrum of the peptide after exposure to aluminum (A-beta1-42 peptide): at least partially restored

CC(C)[Si](Cl)(Cl)C(C)C [DCDIPS, dichlorodiisopropylsilane]
Restore original spectra? (NF-M17): Yes
equivalents at which the CD spectrum of NF-M17/aluminum is restored to (similar to) its original shape (NF-M17): around 32 equivalents
restoration of the original CD spectrum of the peptide after exposure to aluminum (A-beta1-42 peptide): at least partially restored

O[Si](O)(c1ccccc1)c1ccccc1 [DPSD, diphenylsilandiol]
Restore original spectra? (NF-M17; CD spectrum of NF-M17 with 8 equivalents of aluminum, titration up to 32 equivalents): did not restore; also recorded: (DMSO interfered with spectra)

CCCCCC[Si](C)(Cl)Cl [HMDS, hexylmethyldichlorosilane]
Restore original spectra? (NF-M17): Yes
equivalents at which the CD spectrum of NF-M17/aluminum is restored to (similar to) its original shape (NF-M17): around 32 equivalents
restoration of the original CD spectrum of the peptide after exposure to aluminum (A-beta1-42 peptide): at least partially restored

C[Si](Cl)(Cl)c1ccccc1 [MPDS, methylphenyldichlorosilane]
Restore original spectra? (NF-M17): Yes
equivalents at which the CD spectrum of NF-M17/aluminum is restored to (similar to) its original shape (NF-M17): around 32 equivalents

CCCCCCCC[Si](Cl)(Cl)Cl [OTCS, n-octyltrichlorosilane]
Restore original spectra? (NF-M17): did not restore; also recorded: (gelation of OTCS)

C1CC[Si]2(CCCCO2)OC1 [SDSU, 1,7-dioxa-6-sila-spiro[5.5]undecane]
restoration of the original CD spectrum of the peptide after exposure to aluminum (A-beta1-42 peptide): at least partially restored
transport across the Caco-2 cells (Caco-2 cells [2]): significant amount of transport

CC(=O)O[Si](OC(C)=O)(OC(C)=O)OC(C)=O [TAS, tetraacetooxysilane]
restoration of the original CD spectrum of the peptide after exposure to aluminum (A-beta1-42 peptide; 8 to 12 equivalents of aluminum): at least partially restored

CC(C)(C)[Si](C)(C)O [TBDMS, tert-butyldimethylsilanol]
Restore original spectra? (NF-M17): did not restore and No

CC[Si](O)(CC)CC [TES, triethylsilanol]
Restore original spectra? (NF-M17): did not restore and No
restoration of the original CD spectrum of the peptide after exposure to aluminum (A-beta1-42 peptide): at least partially restored

CN(C)[Si](N(C)C)(N(C)C)N(C)C [tetrakis, tetrakis(dimethylamino)silane]
restoration of the original CD spectrum of the peptide after exposure to aluminum (A-beta1-42 peptide): at least partially restored

(dichloro)methylsilylbutyronitrile [DCMSBN]
Restore original spectra? (NF-M17): Yes
equivalents at which the CD spectrum of NF-M17/aluminum is restored to (similar to) its original shape (NF-M17): around 32 equivalents
restoration of the original CD spectrum of the peptide after exposure to aluminum (A-beta1-42 peptide): at least partially restored
transport across Caco-2 cells, FIG. 29B compounds compared with FIG. 29A compounds (Caco-2 cells [2]): more transport
transport across the Caco-2 cells (Caco-2 cells [2]): significant amount of transport

Trihydroxysilylmethyl phosphonate
permeation across Caco-2 cells compared with mannitol (Caco-2 cells [1]): slower permeation

dichlorosilacyclobutane [DCSCB]
restoration of the original CD spectrum of the peptide after exposure to aluminum (A-beta1-42 peptide): at least partially restored
transport across the Caco-2 cells (Caco-2 cells [2]): significant amount of transport

sodium metasilicate nonahydrate [reference compound]
equivalents at which some return / beginning of return of the CD curve to its original shape is seen (NF-M17): about 32 equivalents

sodium orthosilicate [reference compound]
equivalents at which some return / beginning of return of the CD curve to its original shape is seen (NF-M17): 4 equivalents
equivalents at which the CD spectrum of NF-M17/aluminum is restored to (similar to) its original shape (NF-M17): around 16 equivalents
restoration of the original CD spectrum of the peptide after exposure to aluminum (A-beta1-42 peptide): at least partially restored

triethoxysilylbutyronitrile
restoration of the original CD spectrum of the peptide after exposure to aluminum (A-beta1-42 peptide): reverses aluminum-induced denaturation
crossing of the epithelial barrier in the Caco-2 model (Caco-2 cells [1]): crossed the epithelial barrier efficiently
permeation across Caco-2 cells compared with mannitol (Caco-2 cells [1]): at least four times greater

triethoxysilylbutyronitrile [TESB]
restoration of the original CD spectrum of the peptide after exposure to aluminum (A-beta1-42 peptide): at least partially restored
recovery of helicity in Al-denatured peptide / reversal of aluminum-induced denaturation (CD) (A-beta peptide fragment): appeared to reverse aluminum-induced denaturation
transport across Caco-2 cells, FIG. 29B compounds compared with FIG. 29A compounds (Caco-2 cells [2]): more transport
transport across the Caco-2 cells (Caco-2 cells [2]): significant amount of transport
Cell Permeation Coefficient (cm/sec) Caco-2 (Caco-2 cells [1]): 3.7e-05 cm/s
Permeation Coefficient (cm/sec) Mean ± SD, where applicable (Caco-2 cells [1]): 3e-05 cm/s
Total Permeation Coefficient (cm/sec) Mean ± SD, where applicable, Caco-2 (Caco-2 cells [1]): 2.8 ± 1.8 × 10^−5 cm/sec
cell permeation coefficient compared with mannitol, Caco-2 (Caco-2 cells [1]): at least ten times greater
crossing of the epithelial barrier in the Caco-2 model (Caco-2 cells [1]): cross the epithelial barrier relatively efficiently
permeation across Caco-2 cells compared with mannitol (Caco-2 cells [1]): at least ten times greater
Cell Permeation Coefficient (cm/sec) MDCK (MDCK cells): 2.7e-05 cm/s
Total Permeation Coefficient (cm/sec) Mean ± SD, where applicable, MDCK (MDCK cells): 2.2 ± 1.4 × 10^−5 cm/sec
cell permeation coefficient compared with mannitol, MDCK (MDCK cells): at least ten times greater
crossing of the epithelial barrier in the MDCK model (MDCK cells): cross the epithelial barrier relatively efficiently
permeation across MDCK cells compared with mannitol (MDCK cells): at least ten times greater

triethoxysilylpropionitrile [TESP]
restoration of the original CD spectrum of the peptide after exposure to aluminum (A-beta1-42 peptide): at least partially restored

trihydroxysilylmethyl phosphonate
crossing of the epithelial barrier in the Caco-2 model (Caco-2 cells [1]): permeated less efficiently

trihydroxysilylmethyl phosphonate [TSMP]
Cell Permeation Coefficient (cm/sec) Caco-2 (Caco-2 cells [1]): 2e-07 cm/s
Permeation Coefficient (cm/sec) Mean ± SD, where applicable (Caco-2 cells [1]): 1.9 ± 1.5 × 10^−7 cm/sec
Total Permeation Coefficient (cm/sec) Mean ± SD, where applicable, Caco-2 (Caco-2 cells [1]): 1.9 ± 1.5 × 10^−7 cm/sec
permeation across Caco-2 cells compared with mannitol (Caco-2 cells [1]): slower permeation
Cell Permeation Coefficient (cm/sec) MDCK (MDCK cells): 5.4e-07 cm/s
Total Permeation Coefficient (cm/sec) Mean ± SD, where applicable, MDCK (MDCK cells): 5.2 ± 7.0 × 10^−7 cm/sec
permeation across MDCK cells compared with mannitol (MDCK cells): slower permeation
